# Source: patent US7041677B2, “Use of monochloroflosequinan in the treatment of sexual dysfunction” (R.T. Alamo Ventures I, LLC, priority 2002, dated 2006)
# Several values for one entry are separate records, joined by “and”; a condition that tells them apart may be missing. Equal values may be shown once. Marks after values point to notes of the source that are not given here.
# System: male Cynomolgus monkeys (Macaca fascicularis)
# Test: Erection monitoring after single intracavernosal dose
# Type: in vivo
# Design: key to Onset Score / Duration Score: 0: no response; erection but transient—less than 1 minute; 2: erection lasting at least 1 minute but less than 5 minutes; 3: erection lasting at least 5 minutes but less than 7 minutes; 4: erection lasting longer than 7 minutes
# Details: for Erection Score: Erection Score=2D+O; for Onset of Erection: minutes post administration; for Erection Index: Erection Score/n, n=number of animals (4 monkeys); for inducing penile erections: Cynomolgus monkeys, intracavernosal, summary of Tables 4 & 5
# Experimental: In this example, various halogenated derivatives of flosequinan were evaluated for their ability to induce penile erections. A single intracavernosal dose (of a given halogenated derivative of flosequinan) was administered to male Cynomolgus monkeys (Macaca fascicularis). The Cynomolgus monkey was selected because it is an appropriate established non-rodent species to be used as an erectile dysfunction model. Before the application of the test substances the possible erectile effect of dimethylsulfoxide 25% (DMSO) at a dose volume of 0.15 ml was assessed. (Concentrations of test compounds of less than 10 mg/ml were administered in 25% DMSO. Concentrations of 10 mg/ml or greater were administered in 100% DMSO). An initial dose level of 0.625 mg/kg of the test substance and the derivatives were used. If an erectile effect of the initial dose level was observed 1.25 mg/kg and finally 2.5 mg/kg of each test substance was used. Between each dose level and change of test substance there was a wash out phase of three days [except on Days 1 to 4 (Monochloroflosequinan Racemate) and days 40 to 43 (Monofluoroflosequinan) of the study where there was a wash out phase of only two days between treatments]. Dose volume: A dose volume of 0.15 ml per animal was used. The test substances were prepared according to the following scheme. For each test substance 10 mg was diluted in 1 ml of DMSO. After the test substance was completely dissolved the solution was diluted stepwise 1:2 with double distilled water to the required dose level. The test substance was formulated on the day of the dosing and stored at room temperature. No stability test was required when the test substances were formulated on the day of dosing. Remaining test substances were stored at approximately -80° C. Sufficient purpose-bred naive Cynomolgus monkeys (Macaca fascicularis) were obtained from a recognized supplier in order to provide 4 healthy male animals. At the start of study the animals were in the weight range of 4 to 7 kg and approximately 4 to 6 years old. The animals were housed in a climate controlled room to provide a minimum of 10 air changes per hour. Routinely the temperature and relative humidity ranges were between 19-25° C. and 30-70% respectively. Artificial lighting was controlled automatically to give a cycle of 12 hours light and 12 hours dark. The animals were housed singly in stainless steel cages (dimensions: 600 mm×600 mm×800 mm; E. Becker & Co. GmbH, 44579 Castrop-Rauxel, Germany). Each animal was offered twice daily between 50 to 70 g of a commercial pellet diet for primates (Ssniff P10, Ssniff Spezialdiäten GmbH, Ferdinand-Gabriel-Weg 16, 59494 Soest, Germany). Every three months diet was analyzed for specific contaminants. Tap water was provided ad libtum via an automatic watering system or bottles, except during urine collection. The water was periodically analyzed for specific contaminants found to be present in the diet or water at levels that might interfere with achieving the objective of the study. Clinical Observations: In addition to the initial pharmacological effect (penile erection) monitoring, all animals were observed twice daily for signs of ill health or overt toxicity. An individual record was maintained of the clinical condition of each animal. Post-dosing observations were performed at the discretion of the Study Director. All animals were examined at the beginning and the end of the working hours. […] Body weights were recorded once before dosing. Food consumption was not recorded. For proof of erection capability the animals were checked once pre-dose with electrostimulation using a rectal probe under sedation with […]. […] The onset post drug administration and duration of erection were recorded. Table 5 (below) provides an “Erection Score” and “Erection Index” for the same selected halogenated flosequinan derivatives presented in Table 5. […]
# [1] = 0.625 mg/ml intracavernosal, monkey 11539M
# [2] = 0.625 mg/ml intracavernosal, monkey 11543M
# [3] = 0.625 mg/ml intracavernosal, monkey 11584M
# [4] = 0.625 mg/ml intracavernosal, monkey 11590M
# [5] = 2.5 mg/ml intracavernosal, monkey 11539M
# [6] = 2.5 mg/ml intracavernosal, monkey 11543M
# [7] = 2.5 mg/ml intracavernosal, monkey 11584M
# [8] = 2.5 mg/ml intracavernosal, monkey 11590M
# [9] = 10 mg/ml intracavernosal, monkey 11539M
# [10] = 10 mg/ml intracavernosal, monkey 11543M
# [11] = 10 mg/ml intracavernosal, monkey 11584M
# [12] = 10 mg/ml intracavernosal, monkey 11590M
smiles,measurement,setting,value
"Cn1cc([S+]([O-])CCl)c(=O)c2ccc(F)cc21 (racemic) [monochloroflosequinan, 3-chloromethylsulfinyl-7-fluoro-1-methyl-4-quinolone]",Duration Score,[1],0
same,Onset Score,[1],0
same,Erection Score,[1],0
same,Duration Erection,[2],<1 min-^
same,Duration Score,[2],0
same,Onset Score,[2],0
same,Onset of Erection,[2],70^a* min
same,Erection Score,[2],0
same,Duration Score,[3],0
same,Onset Score,[3],0
same,Erection Score,[3],0
same,Duration Score,[4],0
same,Onset Score,[4],0
same,Erection Score,[4],0
same,Erection Index,0.625 mg/ml intracavernosal,0
same,Duration Score,[5],0
same,Onset Score,[5],0
same,Erection Score,[5],0
same,Duration Score,[6],0
same,Onset Score,[6],0
same,Erection Score,[6],0
same,Duration Score,[7],0
same,Onset Score,[7],0
same,Erection Score,[7],0
same,Duration Score,[8],0
same,Onset Score,[8],0
same,Erection Score,[8],0
same,Erection Index,2.5 mg/ml intracavernosal,0
same,Duration Score,[9],0
same,Onset Score,[9],0
same,Erection Score,[9],0
same,Duration Score,[10],0
same,Onset Score,[10],0
same,Erection Score,[10],0
same,Duration Score,[11],0
same,Onset Score,[11],0
same,Erection Score,[11],0
same,Duration Score,[12],0
same,Onset Score,[12],0
same,Erection Score,[12],0
same,Erection Index,10 mg/ml intracavernosal,0
"Cn1cc([S@@+]([O-])CCl)c(=O)c2ccc(F)cc21 (single isomer, unassigned) [(−)-enantiomer of monochloroflosequinan]",Duration Score,[9],0
same,Onset Score,[9],0
same,Erection Score,[9],0
same,Duration Score,[10],0
same,Onset Score,[10],0
same,Erection Score,[10],0
same,Duration Score,[11],0
same,Onset Score,[11],0
same,Erection Score,[11],0
same,Duration Erection,[12],7 min
same,Duration Score,[12],3 (erection lasting at least 5 minutes but less than 7 minutes)
same,Onset Score,[12],4 (erection onset 1 minute or less (immediate))
same,Onset of Erection,[12],immediate <1 min
same,Erection Score,[12],10
same,Erection Index,10 mg/ml intracavernosal,2.5
"Cn1cc([S+]([O-])C(Cl)Cl)c(=O)c2ccc(F)cc21 (stereo not shown) [dichloroflosequinan, 3-dichloromethylsulfinyl-7-fluoro-1-methyl-4-quinolone]",Duration Score,[9],0
same,Onset Score,[9],0
same,Erection Score,[9],0
same,Duration Erection,[10],1 min
same,Duration Score,[10],2 (erection lasting at least 1 minute but less than 5 minutes)
same,Onset Score,[10],4 (erection onset 1 minute or less (immediate))
same,Erection Score,[10],8
same,Duration Erection,[11],1 min
same,Duration Score,[11],2 (erection lasting at least 1 minute but less than 5 minutes)
same,Onset Score,[11],4 (erection onset 1 minute or less (immediate))
same,Onset of Erection,[11],immediate <1 min
same,Erection Score,[11],8
same,Duration Erection,[12],7 min
same,Duration Score,[12],4 (erection lasting longer than 7 minutes)
same,Onset Score,[12],4 (erection onset 1 minute or less (immediate))
same,Onset of Erection,[12],immediate <1 min
same,Erection Score,[12],12
same,Erection Index,10 mg/ml intracavernosal,7.0
same,inducing penile erections,,especially effective
"Cn1cc([S@+]([O-])CCl)c(=O)c2ccc(F)cc21 (single isomer, unassigned) [(+)-enantiomer of monochloroflosequinan]",Duration Erection,[5],<1 min
same,Duration Score,[5],1 (erection but transient—less than 1 minute)
same,Onset Score,[5],1 (erection onset longer than 10 minutes)
same,Onset of Erection,[5],107* min
same,Erection Score,[5],3
same,Duration Erection,[6],<1 min
same,Duration Score,[6],1 (erection but transient—less than 1 minute)
same,Onset Score,[6],1* (erection onset longer than 10 minutes)
same,Onset of Erection,"2.5 mg/ml intracavernosal, monkey 11543M, listed as MONOCHLOROFLOSEQUINAN S(+)",34* min and 38* min and 39^a* ejaculation min
same,Erection Score,[6],3
same,Duration Score,[7],1 (erection but transient—less than 1 minute)
same,Onset Score,[7],1 (erection onset longer than 10 minutes)
same,Erection Score,[7],3
same,Duration Score,[8],3 (erection lasting at least 5 minutes but less than 7 minutes)
same,Onset Score,[8],4 (erection onset 1 minute or less (immediate))
same,Erection Score,[8],10
same,Erection Index,2.5 mg/ml intracavernosal,4.8
same,Duration Score,[9],0
same,Onset Score,[9],4* (erection onset 1 minute or less (immediate))
same,Erection Score,[9],4
same,Duration Score,[10],0
same,Onset Score,[10],0
same,Erection Score,[10],0
same,Duration Erection,[11],<1 min
same,Duration Score,[11],1 (erection but transient—less than 1 minute)
same,Onset Score,[11],3* (erection onset between 2 and 4 minutes)
same,Erection Score,[11],5
same,Duration Erection,[12],8 min
same,Duration Score,[12],4 (erection lasting longer than 7 minutes)
same,Onset Score,[12],4 (erection onset 1 minute or less (immediate))
same,Onset of Erection,[12],immediate <1 min
same,Erection Score,[12],12
same,Erection Index,10 mg/ml intracavernosal,5.3
same,inducing penile erections,,especially effective
